Assays:
[1] = test system: Methicillin Resistant Staphylococcus aureus MRSA USA300; assay: In-vitro agar well diffusion, zone of bacterial growth inhibition; assay type: cell-based
Experimental: All challenge inoculum suspensions were prepared by swabbing a 3-cm diameter area of the growth from a culture plate into 4.5 ml of sterile phosphate buffer solution (PBS). […] The concentration was confirmed using historical optical density measurements. […] Concentrations of 10^4 CFU/ml for each bacteria was tested in this study.
Three (3) plates of Tryptic soy agar with 5% sheep blood (TSAII) per treatment for each bacteria was challenged with 100 μl of each inoculum 10^4 CFU/ml (MRSA USA300 or PA27312).
Inoculums were spread around each plate using 3 mm sterile glass beads.
Three (10 mm) punch biopsies were made on all inoculated TSAII blood culture media plates and those biopsies were removed with a sterile spatula to create wells on each plate.
Approximately 150-200 μl of each treatment was placed in the well of the inoculated TSA II plates. […] Negative Control Petrolatum or Sterile PBS.
Treatments were allowed to diffuse into agar for approximately 2-3 hours at room temperature prior to incubating plates for 24 hours at 37° C.
After the incubation period, the zones of bacteria growth inhibition (if any) were measured using ImageJ 1.4lo software.
IBM SSPS Statistics Version 26 with ANOVA statistical analysis was used to determine any differences between treatments.

[2] = Solubility in anhydrous lipophilic oil composition
[3] = average of 9 wells, 10^4 CFU/ml
[4] = average of 9 wells, 10^4 CFU/ml, ImageJ area

Row | SMILES | zone of inhibition, comparison in words ([1]; MRSA USA300) | Average Inhition in cm2 [1, 3] [cm2] | Diameter cm (of average inhibition zone) [1, 3] [cm] | Average Inhibition Zone vs Each disk [1, 4] | Average Inhibition Zone vs disk average [1, 4] | areas of inhibition zones ([1]; mean ± spread, 10^4 CFU/ml MRSA USA300) [cm^2] | inherent solubility in an oil [2]
1 | C/C(=C\C(=O)OCCCCCCCCC(=O)O)C[C@@H]1OC[C@H](C[C@@H]2O[C@H]2[C@@H](C)[C@H](C)O)[C@@H](O)[C@H]1O [Mupirocin] | largest zone of inhibition | 42.81 | 7.3849 | 244618.78 | 244618.78 | 42.81±0.29 | –
2 | CCCCCCCCCCCC(=O)OCC(O)CO (stereo not shown) [monolaurin, glycerol monolaurate] | – | – | – | – | – | – | less than or equal to 0.6%
